Our source for the ring closure, conversion by HPLC (% conversion (LC/MS deconvolution)) values is publication PMC7014401.

Data set [1] can be described thus: On-DNA RCM, Grubbs III catalyst A (150 eq), MgCl2 8000 eq (Lu et al. conditions, heterogeneous, rerun here). Particulars: H2O:tBuOH 3:2, 0.09 mM, 25.0 °C, 1.0 h.
Data set [2] is described as follows: On-DNA RCM, Grubbs III catalyst A (10 eq) + 2,2'-biphenyldiamine C (20 eq), MgCl2 20000 eq, NH4Cl 12000 eq (Alternative #2). The note with it: H2O:EtOH:MeOAc 5:4:1, 0.02 mM, 25.0 °C, 0.5 h.
Data set [3] can be described thus: On-DNA RCM, Grubbs III catalyst A (10 eq), MgCl2 20000 eq, NH4Cl 12000 eq (Alternative #1). The note with it: H2O:EtOH:MeOAc 5:4:1, 0.02 mM, 25.0 °C, 0.5 h.
Data set [4] can be described thus: On-DNA RCM (terminal diene to cyclic alkene), catalyst B (Grubbs-III 2,2'-biphenyldiamine derivative, 10 eq), MgCl2 20000 eq, NH4Cl 12000 eq. The note with it: H2O:EtOH:MeOAc 5:4:1, 0.02 mM, 25.0 °C, 0.5 h.
The mark [5] stands for this setting: from C=CCCCC(=O)NCCCC[C@@H](NC(=O)COCCOCCNC(=O)CCCC=C)C(=O)NC, 26-membered ring.
Where [6] appears, read: from C=CCCCC(=O)NCCCC[C@H](NC(=O)CCCC=C)C(=O)NC, 17-membered ring.
Where [7] appears, read: from C=CCCCC(=O)N(CC=C)CC(=O)NC, 8-membered ring.
Setting [8] is: from C=CCCC[C@](C)(NC(=O)[C@H](CCCNC(=N)N)NC(=O)[C@H](Cc1c[nH]cn1)NC(=O)[C@H](CC(C)C)NC(=O)[C@](C)(CCCC=C)NC(=O)[C@H](CCCCN)NC(=O)[C@H](CCCNC(=N)N)NC(=O)[C@H](CCCNC(=N)N)NC(=O)[C@H](CCCNC(=N)N)NC(=O)[C@H](CCCNC(=N)N)NC(C)=O)C(=O)N[C@@H](CC(C)C)C(=O)N[C@@H](CCC(N)=O)C(=O)N[C@@H](CC(=O)O)C(=O)N[C@@H](CCc1cn(CC(=O)NC)nn1)C(N)=O, 21-membered ring.

`CNC(=O)[C@@H]1CCCCNC(=O)CCCC=CCC(=O)N[C@H](c2cccnc2)CC(=O)N1` returned a ring closure, conversion by HPLC (% conversion (LC/MS deconvolution)) in data set [1] (from C=CCCCC(=O)NCCCC[C@H](NC(=O)C[C@H](NC(=O)CC=C)c1cccnc1)C(=O)NC, 19-membered ring) of 0.

In the case of `CNC(=O)[C@H]1CCCCNC(=O)CCCC=CCCCC(=O)NCCOCCOCC(=O)N1`, the ring closure, conversion by HPLC (% conversion (LC/MS deconvolution)) was 23 in data set [1] (setting [5]), 61 in data set [2] (setting [5]), 58 in data set [3] (setting [5]) and 70 in data set [4] (setting [5]).

For `CNC(=O)[C@@H]1CCCCNC(=O)CCCC=CCCCC(=O)N1` [5-hexenoyl-Lys(5-hexenoyl)-NH-DNA (56-bp dsDNA)], the ring closure, conversion by HPLC (% conversion (LC/MS deconvolution)) in data set [4] (setting [6]) was 69.

`CNC(=O)CCOCCOCCOCCOCCn1cc(CC[C@H](NC(=O)[C@H](CC(=O)O)NC(=O)[C@H](CCC(N)=O)NC(=O)[C@H](CC(C)C)NC(=O)[C@]2(C)CCCC=CCCC[C@](C)(NC(=O)[C@H](CCCCN)NC(=O)[C@H](CCCNC(=N)N)NC(=O)[C@H](CCCNC(=N)N)NC(=O)[C@H](CCCNC(=N)N)NC(=O)[C@H](CCCNC(=N)N)NC(C)=O)C(=O)N[C@@H](CC(C)C)C(=O)N[C@@H](Cc3c[nH]cn3)C(=O)N[C@@H](CCCNC(=N)N)C(=O)N2)C(N)=O)nn1` registered a ring closure, conversion by HPLC (% conversion (LC/MS deconvolution)) in data set [4] (from C=CCCC[C@](C)(NC(=O)[C@H](CCCNC(=N)N)NC(=O)[C@H](Cc1c[nH]cn1)NC(=O)[C@H](CC(C)C)NC(=O)[C@](C)(CCCC=C)NC(=O)[C@H](CCCCN)NC(=O)[C@H](CCCNC(=N)N)NC(=O)[C@H](CCCNC(=N)N)NC(=O)[C@H](CCCNC(=N)N)NC(=O)[C@H](CCCNC(=N)N)NC(C)=O)C(=O)N[C@@H](CC(C)C)C(=O)N[C@@H](CCC(N)=O)C(=O)N[C@@H](CC(=O)O)C(=O)N[C@@H](CCc1cn(CCOCCOCCOCCOCCC(=O)NC)nn1)C(N)=O, 21-membered ring) of 65.

For the compound `CNC(=O)CN1CC=CCCCC1=O` [5-hexenoyl-(N-allyl)Gly-NH-DNA], the ring closure, conversion by HPLC (% conversion (LC/MS deconvolution)) is 65 in data set [1] (setting [7]), 73 in data set [2] (setting [7]), 33 in data set [3] (setting [7]) and 62 in data set [4] (setting [7]).

For `CNC(=O)Cn1cc(CC[C@H](NC(=O)[C@H](CC(=O)O)NC(=O)[C@H](CCC(N)=O)NC(=O)[C@H](CC(C)C)NC(=O)[C@]2(C)CCCC=CCCC[C@](C)(NC(=O)[C@H](CCCCN)NC(=O)[C@H](CCCNC(=N)N)NC(=O)[C@H](CCCNC(=N)N)NC(=O)[C@H](CCCNC(=N)N)NC(=O)[C@H](CCCNC(=N)N)NC(C)=O)C(=O)N[C@@H](CC(C)C)C(=O)N[C@@H](Cc3c[nH]cn3)C(=O)N[C@@H](CCCNC(=N)N)C(=O)N2)C(N)=O)nn1`, the ring closure, conversion by HPLC (% conversion (LC/MS deconvolution)) in data set [1] (setting [8]) came out at 22; in data set [4] (setting [8]), 52.

In the case of `CNC(=O)[C@@H]1CCCCNC(=O)CCCC=CCCCC(=O)N1` [5-hexenoyl-Lys(5-hexenoyl)-NH-DNA], the ring closure, conversion by HPLC (% conversion (LC/MS deconvolution)) was 70 in data set [1] (setting [6]), 75 in data set [2] (setting [6]), 72 in data set [3] (setting [6]) and 78 in data set [4] (setting [6]).
